Source: ChEMBL document CHEMBL1145473, “Efficacy of the de novo-derived antimicrobial peptide WLBU2 against oral bacteria” (2007)
Active and inactive are the calls of the source. The rule behind the calls is not given here.

Columns and labels:
Streptococcus gordonii [1] = assay: Antimicrobial activity against Streptococcus gordonii DL1 ATCC 49818 planktonic cells at 25 uM after 30 mins; format: functional, organism-based
Pseudomonas aeruginosa = assay: Antimicrobial activity against Pseudomonas aeruginosa ATCC 47085 by broth dilution assay; format: functional
Fusobacterium nucleatum [2] = assay: Antimicrobial activity against Fusobacterium nucleatum ATCC 25586 by broth dilution assay; format: functional
Streptococcus gordonii [3] = assay: Antimicrobial activity against Streptococcus gordonii DL1 ATCC 49818 by broth dilution assay; format: functional
Streptococcus gordonii [4] = assay: Antimicrobial activity against Streptococcus gordonii DL1 ATCC 49818 biofilms assessed as decrease in viable cell count at 25 uM after 30 mins; format: functional, organism-based
Fusobacterium nucleatum [5] = assay: Antimicrobial activity against Fusobacterium nucleatum planktonic cells at 2 uM after 30 mins; format: functional, organism-based
Fusobacterium nucleatum [6] = assay: Antimicrobial activity against Fusobacterium nucleatum ATCC 49256 by broth dilution assay; format: functional
Porphyromonas gingivalis = assay: Antimicrobial activity against Porphyromonas gingivalis W83 ATCC BAA0308 by broth dilution assay; format: functional
Fusobacterium nucleatum [7] = assay: Antimicrobial activity against Fusobacterium nucleatum biofilms assessed as decrease in viable cell count at 2 uM after 30 mins; format: functional, organism-based

Row | Compound | Activity (Streptococcus gordonii [1]) | MBC (Pseudomonas aeruginosa) [µM] | MBC (Fusobacterium nucleatum [2]) [µM] | MBC (Streptococcus gordonii [3]) [µM] | Activity (Streptococcus gordonii [4]) | Activity (Fusobacterium nucleatum [5]) | MBC (Fusobacterium nucleatum [6]) [µM] | MBC (Porphyromonas gingivalis) [µM] | Activity (Fusobacterium nucleatum [7])
1 | H-RRWVRRVRRWVRRVVRVVRRWVRR-OH | Active | 1 | 1 | 12.5 | Active | Active | 1 | 50 | –
2 | Cc1ncc([N+](=O)[O-])n1CCO | – | – | – | – | – | – | – | – | inactive
3 | CC1(C)S[C@@H]2[C@H](NC(=O)[C@H](N)c3ccc(O)cc3)C(=O)N2[C@H]1C(=O)O | – | – | – | – | – | – | – | – | inactive
